The values that follow come from patent publication US20230357232A1, “IMIDAZO[1,2-A]PYRIDINE COMPOUND AND PEST CONTROL AGENT” (Nippon Soda Co., Ltd., priority 2020, published 2023).

Some results are limits rather than exact numbers.

The test system of series [1] is Plutella xylostella. Put plainly: Test of efficacy on Plutella xylostella (cabbage leaf dip). It counts as in vivo. Conditions: foliar, 72 h, cabbage leaves dipped 30 seconds, second instar larvae, after 3 days, 25° C., read-out: insecticidal rate. The procedure: (§1) 5 parts of the imidazo[1,2-a]pyridine compound of the present invention, 93.6 parts of dimethylformamide, and 1.4 parts of polyoxyethylene alkyl aryl ether were mixed and dissolved to prepare emulsion (I) containing 5% of the active ingredient.
(§2) An insecticidal rate was calculated according to the following expression: […]
The emulsion (I) was diluted with water such that the concentration of the compound of the present invention was 125 ppm. Cabbage leaves were dipped in the dilution for 30 seconds. The resulting cabbage leaves were placed in a petri dish. Five second instar larvae of Plutella xylostella were released thereto. The petri dish was placed in a thermostat chamber having a temperature of 25° C. and a humidity of 60%. Life and death were determined after 3 days from the release of the insects, and the insecticidal rate was calculated. The test was conducted in duplicate.

Series [2] relates to Phyllotreta striolata. Put plainly: Test of efficacy on Phyllotreta striolata (spray on Qing geng cai seedlings). The note with it: 168 h, 125 ppm sprayed to Qing geng cai seedlings, adults, after 7 days, 25° C., read-out: insecticidal rate. The series is classed as in vivo. The procedure:
as §1, §2
The emulsion (I) was diluted with water such that the concentration of the compound of the present invention was 125 ppm to prepare a test chemical. The test chemical was sprayed to Qing geng cai seedlings (at the seventh true leaf stage) planted in 10-cm pots. The Qing geng cai seedlings were dried in air and then placed in a plastic cup. Ten Phyllotreta striolata adults were released thereto. The plastic cup was stored in a thermostat chamber having a temperature of 25° C. and a humidity of 65%. Life and death were determined after 7 days from the release of the insects, and the insecticidal rate was calculated. The test was conducted in duplicate.

Take `CCS(=O)(=O)c1c(-c2ncc(-c3ccc(OC(F)(F)C(F)F)cc3)n2C)nc2ccc(C(F)(F)F)cn12` [a-1]: the pest or weed control at 125 ppm in series [1] was at least 80%.

`CCS(=O)(=O)c1c(-c2ncc(-c3ccc(C(F)(F)F)nc3)n2C)nc2ccc(C(F)(F)F)cn12` [a-2]: the pest or weed control at 125 ppm in series [2] and in series [1] was at least 80% in each case. On to `CCS(=O)(=O)c1c(-c2ncc(-c3ccc(OC(F)(F)F)cc3)n2C)nc2ccc(C(F)(F)F)cn12` [a-3, 3-(ethylsulfonyl)-2-(1-methyl-5-(4-(trifluoromethoxy)phenyl)-1H-imidazol-2-yl)-6-(trifluoromethyl)imidazo[1,2-a]pyridine], for which the pest or weed control at 125 ppm in series [2] and in series [1] was at least 80% in each case. With `CCS(=O)(=O)c1c(-c2ncc(C(F)C(F)(C(F)(F)F)C(F)(F)F)n2C)nc2ccc(C(F)(F)F)cn12` (centres unmarked) [a-4], the pest or weed control at 125 ppm in series [1] was at least 80%. Consider `CCS(=O)(=O)c1c(-c2cn(-c3ccc(OC(F)(F)F)cc3)cn2)nc2ccc(C(F)(F)F)cn12` [a-5], for which the pest or weed control at 125 ppm in series [2] and in series [1] was at least 80% throughout.

Consider `CCS(=O)(=O)c1c(-c2ncn(-c3ccc(OC(F)(F)F)cc3)n2)nc2ccc(C(F)(F)F)cn12` [a-6], for which the pest or weed control at 125 ppm in series [2] and in series [1] was at least 80% throughout. `CCS(=O)(=O)c1c(-c2ncc(-c3ccc(OC(F)(F)F)c(Cl)c3)n2C)nc2ccc(C(F)(F)F)cn12` [a-7]: the pest or weed control at 125 ppm in series [2] and in series [1] was at least 80% each time. Take `CCS(=O)(=O)c1c(-c2ncc(-c3ccc(C(F)(F)F)c(Cl)c3)n2C)nc2ccc(C(F)(F)F)cn12` [a-8]: the pest or weed control at 125 ppm in series [1] was at least 80%.

For the compound `CCS(=O)(=O)c1c(-n2cc(-c3ccc(OC(F)(F)F)cc3)cn2)nc2ccc(C(F)(F)F)cn12` [a-9], the pest or weed control at 125 ppm in series [1] is at least 80%. For `CCS(=O)(=O)c1c(-c2ncc(-c3ccc(OC(F)(F)F)cc3)n2C)nc2cc(C(F)(F)F)ccn12` [a-10], the pest or weed control at 125 ppm in series [2] and in series [1] was at least 80% throughout.

`CCS(=O)(=O)c1c(-c2cn(/C=C(\F)C(F)(F)C(F)(F)F)cn2)nc2ccc(C(F)(F)F)cn12` [a-11]: the pest or weed control at 125 ppm in series [2] and in series [1] was at least 80% in each case. Consider `CCS(=O)(=O)c1c(-c2cn(CC(F)(F)C(F)(F)C(F)(F)F)cn2)nc2ccc(C(F)(F)F)cn12` [a-12], for which the pest or weed control at 125 ppm in series [2] and in series [1] was at least 80% each time. For `CCS(=O)(=O)c1c(-c2ncc(/C=C/C(F)(F)C(F)(F)F)n2C)nc2ccc(C(F)(F)F)cn12` [a-13], the pest or weed control at 125 ppm in series [2] and in series [1] was at least 80% in each case.

What is called melting point is the temperature of the solid-liquid transition. In turn, `CCS(=O)(=O)c1c(-c2ncc(C=C(Br)Br)n2C)nc2ccc(C(F)(F)F)cn12` [a-14] came in with a melting point of 233 to 235 °C.

Take `CCS(=O)(=O)c1c(-c2ncc(C=C(Cl)Cl)n2C)nc2ccc(C(F)(F)F)cn12` [a-15]: the melting point lay in the range of 236 to 238 °C. With `CCS(=O)(=O)c1c(-c2ncc(/C=C(/F)C(F)(F)C(F)(F)F)n2C)nc2ccc(C(F)(F)F)cn12` [a-16], the pest or weed control at 125 ppm in series [2] is at least 80%. For `CCS(=O)(=O)c1c(-c2ncc(/C=C(\F)C(F)(F)C(F)(F)F)n2C)nc2ccc(C(F)(F)F)cn12` [a-17], the pest or weed control at 125 ppm in series [2] and in series [1] was at least 80% in each case. `CCS(=O)(=O)c1c(-c2ncc(C=C(F)C(F)(F)C(F)(F)F)n2C)nc2cc(C(F)(F)F)ccn12` [a-19]: the pest or weed control at 125 ppm in series [2] and in series [1] was at least 80% in each case. `CCS(=O)(=O)c1c(-c2ncc(C=C(F)C(F)(F)C(F)(F)F)n2C)nc2ccc(C(F)(F)F)cn12` [a-20]: the pest or weed control at 125 ppm in series [2] and in series [1] was at least 80% in each case.

On to `CCS(=O)(=O)c1c(-c2ncc(C=C(Cl)C(F)(F)F)n2C)nc2cc(C3CC3)ccn12` [a-21], for which the pest or weed control at 125 ppm in series [2] and in series [1] was at least 80% throughout. As for `CCS(=O)(=O)c1c(-c2ncc(C=C(Cl)C(F)(F)F)n2C)nc2cc(Cl)ccn12` [a-22], the pest or weed control at 125 ppm in series [2] and in series [1] was at least 80% in each case. In the case of `CCS(=O)(=O)c1c(-c2ncc(C=C(Cl)C(F)(F)F)n2C)nc2ccc(Cl)cn12` [a-23], the pest or weed control at 125 ppm in series [2] and in series [1] was at least 80% in each case.

As for `CCS(=O)(=O)c1c(-c2ncc(/C=C(\Cl)C(F)(F)F)n2C)nc2cc(C(F)(F)F)ccn12` [a-24], the pest or weed control at 125 ppm in series [1] was at least 80%.
